Test results as given in patent US9260436B2 (Sumitomo Chemical Company, Limited, priority 2012, dated 2016).

What was measured:
Aphis gossypii = experiment: Test Example 2: foot drench of cucumber seedling, then inoculation with Aphis gossypii; type: in vivo; conditions: 500 ppm, 5 ml drenched at foot of cucumber seedling, 7 days then inoculation, further 6 days
Protocol: On the other hand, a cucumber seedling (the second true leaf stage) planted in a plastic cup was drenched at its foot with 5 ml of the test drug solution, and kept in a greenhouse at 25° C. for 7 days. On the cucumber leaf surface was inoculated 30 Aphis gossypii (whole stage), and further kept in the greenhouse for 6 days, then the number of surviving Aphis gossypii parasitized on the leaves of the cucumber was examined, and the controlling value was calculated according to the following equation: Controlling value (%)={1−(Cb×Tai)/(Cai×Tb)}×100 wherein the symbols represent as follows: Cb: the number of insects in a non-treated section before treatment, Cai: the number of insects in a non-treated section on observation, Tb: the number of insects in a treated section before treatment, Tai: the number of insects in a treated section on observation, wherein the non-treated section refers to a section where the test drug solution prepared by diluting the formulation not containing the compound of the present invention as in Formulation Example 5 with the same amount of water as in the treated section was sprayed.

[1] = test system: Haemaphysalis longicornis; experiment: Test Example 11: coated screw tube contact test, Haemaphysalis longicornis nymphal ticks; type: in vivo; conditions: 48 h, 2 mg compound in 0.2 mL acetone coated on inner wall of screw tube, after 2 days, read-out: death rate
Protocol: 2 mg of each of Compounds of Present Invention 6, 8, 10, 26, 28, 29, 33, 35 and 37 was weighed in a screw tube (Maruemu No. 5; 27×55 mm), and 0.2 mL of acetone was added thereto and sealed with a cap to dissolve the compound. The screw tube was rotated and inverted to uniformity coat the drug solution onto the whole inner wall of the tube. After removing the cap, the solution was air-dried for about 2 hours, then non-blood-sucking nymphal ticks, Haemaphysalis longicornis (5 ticks/group) were released, and the tube was sealed with the cap. After 2 days, the number of dead ticks was examined, and the death rate was calculated according to the following equation: Death rate (%)=100×(Number of dead ticks/Number of tested ticks).

Compound	controlling value (Aphis gossypii)	pest or weed control at 2 mg/tube [1]
CCS(=O)(=O)c1ccccc1-c1cnc2nc(C(F)(F)F)cn2c1	≥ 90%	–
CCCNc1nc(-c2ccccc2SCC)nc2cc(C(F)(F)F)ccc12 [Compound of Present Invention 8, 2-(2-ethylsulfanylphenyl)-4-propylamino-7-trifluoromethylquinazoline]	–	100%
CCCNc1nc(-c2ccccc2S(=O)(=O)CC)nc2cc(C(F)(F)F)ccc12 [Compound of Present Invention 10, 2-(2-ethylsulfonylphenyl)-4-propylamino-7-trifluoromethylquinazoline]	–	100%
CCSc1ccccc1-c1ccc2nc(C(F)(F)F)cn2c1 [Compound of Present Invention 26, 6-(2-ethylsulfanylphenyl)-2-trifluoromethylimidazo[1,2-a]pyridine]	–	100%
CCSc1ccccc1-c1ccc2nc(C(F)(F)F)cn2c1C [Compound of Present Invention 28, 6-(2-ethylsulfanylphenyl)-5-methyl-2-trifluoromethylimidazo [1,2-a]pyridine]	–	100%
CCSc1ccccc1-c1ccc2nc(C(F)(F)C(F)(F)F)cn2c1C [Compound of Present Invention 29, 6-(2-ethylsulfanylphenyl)-5-methyl-2-pentafluoroethylimidazo[1,2-a]pyridine]	–	100%
CCSc1ccccc1-c1ccc2nc(C(F)(F)F)cn2n1 [Compound of Present Invention 33, 6-(2-ethylsulfanylphenyl)-2-trifluoromethylimidazo[1,2-b]pyridine]	–	100%
CCSc1ccccc1-c1cnc2nc(C(F)(F)F)cn2c1 [Compound of Present Invention 35, 6-(2-ethylsulfanylphenyl)-2-trifluoromethylimidazo[1,2-a]pyrimidine]	–	100%
CCSc1ccccc1-c1ccn2cc(C(F)(F)F)nc2c1 [Compound of Present Invention 37, 7-(2-ethylsulfanylphenyl)-2-trifluoromethylimidazo[1,2-a]pyridine]	–	100%
